Assay results published in ChEMBL document CHEMBL1148065, “Two new flavones from Calliandra californica” (1994).
Calls of active or inactive are those of the source. The rule behind the calls is not given here.

Tests used:
Staphylococcus aureus = experiment: Antimicrobial activity against Staphylococcus aureus at 1 mg/disk; format: functional
Bacillus subtilis = experiment: Antimicrobial activity against Bacillus subtilis at 1 mg/disk; format: functional

| Compound | inhibition zone (IZ) (Staphylococcus aureus) [mm] | inhibition zone (IZ) (Bacillus subtilis) [mm] | Activity (Staphylococcus aureus) | Activity (Bacillus subtilis) |
| --- | --- | --- | --- | --- |
| COc1cc(O)c2c(=O)cc(-c3cc(OC)c(OC)cc3OC)oc2c1 | 8 | 11 |  |  |
| COc1ccc2c(=O)cc(-c3cc(OC)c(OC)cc3OC)oc2c1 |  |  | inactive | inactive |
